From patent US10071086B2, “1H-pyrazolo[3,4-b]pyridines and therapeutic uses thereof” (Samumed, LLC, priority 2012, dated 2018)

Assays:
β-catenin = test: NL-20 β-catenin reporter assay (primary screening assay for IPF); assay type: cell-based; settings: transformed human bronchial epithelial cell line NL-20
Source text: Compounds of Formulas (I) or (II) were screened in a β-catenin-based reporter assay in a transformed human bronchial epithelial cell line (NL-20).

Wnt pathway = test: Wnt activity reporter assay (SP5 promoter-luciferase in SW480 cells); assay type: cell-based; settings: Homo sapiens, SP5 promoter firefly luciferase reporter, read-out: Wnt inhibition
How it was run: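 SW480 cells stably carrying an SP5 promoter (eight TCF/LEF sites)-firefly luciferase reporter were seeded at ~10,000 per well and given half-log compound dilutions from a 10 µM top concentration.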

SMILES	IC50 (β-catenin; NL20)	IC50 (Wnt pathway)	IC50 (β-catenin)
Nc1cncc(-c2cnc3[nH]nc(-c4nc5c(-c6cccc(F)c6)cncc5[nH]4)c3c2)c1 [Compound 5, 5-(3-(7-(3-Fluorophenyl)-3H-imidazo[4,5-c]pyridin-2-yl)-1H-pyrazolo[3,4-b]pyridin-5-yl)pyridin-3-amine]	175 nM	3.9 nM	–
CN1CCN(c2cc(F)cc(-c3cncc4[nH]c(-c5n[nH]c6ncc(-c7cccnc7)cc56)nc34)c2)CC1 [Compound 11, 3-(7-(3-Fluoro-5-(4-methylpiperazin-1-yl)phenyl)-3H-imidazo[4,5-c]pyridin-2-yl)-5-(pyridin-3-yl)-1H-pyrazolo[3,4-b]pyridine]	210 nM	99 nM	–
CN(C)c1cncc(-c2cnc3[nH]nc(-c4nc5c(-c6cccc(F)c6)cncc5[nH]4)c3c2)c1 [Compound 7, 5-(3-(7-(3-Fluorophenyl)-3H-imidazo[4,5-c]pyridin-2-yl)-1H-pyrazolo[3,4-b]pyridin-5-yl)-N,N-dimethylpyridin-3-amine]	1900 nM	6 nM	–
CN(C)Cc1cc(F)cc(-c2cncc3[nH]c(-c4n[nH]c5ncc(-c6cccnc6)cc45)nc23)c1 [Compound 14, 1-(3-Fluoro-5-(2-(5-(pyridin-3-yl)-1H-pyrazolo[3,4-b]pyridin-3-yl)-3H-imidazo[4,5-c]pyridin-7-yl)phenyl)-N,N-dimethylmethanamine]	2030 nM	138 nM	–
CN(C)Cc1cncc(-c2cnc3[nH]nc(-c4nc5c(-c6cccs6)cncc5[nH]4)c3c2)c1 [Compound 452, N,N-Dimethyl-1-(5-(3-(7-(thiophen-2-yl)-3H-imidazo[4,5-c]pyridin-2-yl)-1H-pyrazolo[3,4-b]pyridin-5-yl)pyridin-3-yl)methanamine]	1090 nM	48 nM	–
CN1CCN(Cc2cc(F)cc(-c3cncc4[nH]c(-c5n[nH]c6ncc(-c7cccnc7)cc56)nc34)c2)CC1 [Compound 10, 3-(7-(3-Fluoro-5-((4-methylpiperazin-1-yl)methyl)phenyl)-3H-imidazo[4,5-c]pyridin-2-yl)-5-(pyridin-3-yl)-1H-pyrazolo[3,4-b]pyridine]	247 nM	263 nM	–
CC(C)Nc1cncc(-c2cnc3[nH]nc(-c4nc5c(-c6cccc(F)c6)cncc5[nH]4)c3c2)c1 [Compound 9, 5-(3-(7-(3-Fluorophenyl)-3H-imidazo[4,5-c]pyridin-2-yl)-1H-pyrazolo[3,4-b]pyridin-5-yl)-N-isopropylpyridin-3-amine]	67 nM	1.2 nM	–
O=C1C(Cc2ccc(O)cc2)N2C(=O)CCN(C(=O)NCc3ccccc3)C2CN1Cc1cccc2ccccc12 (stereo not drawn) [ICG-001, reference compound]	–	–	7000 nM
CN(C)CCNc1cc(F)cc(-c2cncc3[nH]c(-c4n[nH]c5ncc(-c6cccnc6)cc45)nc23)c1 [Compound 12, N1-(3-Fluoro-5-(2-(5-(pyridin-3-yl)-1H-pyrazolo[3,4-b]pyridin-3-yl)-3H-imidazo[4,5-c]pyridin-7-yl)phenyl)-N2,N2-dimethylethane-1,2-diamine]	310 nM	21 nM	–
CN(C)Cc1cncc(-c2cnc3[nH]nc(-c4nc5c(-c6cccc(F)c6)cncc5[nH]4)c3c2)c1 [Compound 18, 1-(5-(3-(7-(3-Fluorophenyl)-3H-imidazo[4,5-c]pyridin-2-yl)-1H-pyrazolo[3,4-b]pyridin-5-yl)pyridin-3-yl)-N,N-dimethylmethanamine]	440 nM	13 nM	–
Fc1ccc(-c2cccc3[nH]c(-c4n[nH]c5ncc(-c6cncc(CNCC7CCCC7)c6)cc45)nc23)cc1 [Compound 586, 1-Cyclopentyl-N-((5-(3-(4-(4-fluorophenyl)-1H-benzo[d]imidazol-2-yl)-1H-pyrazolo[3,4-b]pyridin-5-yl)pyridin-3-yl)methyl)methanamine]	–	420 nM	–
c1cncc(-c2cnc3[nH]nc(-c4nc5c(-c6cccs6)cncc5[nH]4)c3c2)c1 [Compound 443, 5-(Pyridin-3-yl)-3-(7-(thiophen-2-yl)-3H-imidazo[4,5-c]pyridin-2-yl)-1H-pyrazolo[3,4-b]pyridine]	–	1 nM	–
Fc1ccccc1-c1cccc2[nH]c(-c3n[nH]c4ncc(-c5cncc(CN6CCCC6)c5)cc34)nc12 [Compound 599, 3-(4-(2-Fluorophenyl)-1H-benzo[d]imidazol-2-yl)-5-(5-(pyrrolidin-1-ylmethyl)pyridin-3-yl)-1H-pyrazolo[3,4-b]pyridine]	–	220 nM	–
FC1(F)CCN(Cc2cncc(-c3cnc4[nH]nc(-c5nc6c(-c7ccccn7)cccc6[nH]5)c4c3)c2)C1 [Compound 680, 5-(5-((3,3-Difluoropyrrolidin-1-yl)methyl)pyridin-3-yl)-3-(4-(pyridin-2-yl)-1H-benzo[d]imidazol-2-yl)-1H-pyrazolo[3,4-b]pyridine]	–	170 nM	–
CN(C)Cc1cncc(-c2cnc3[nH]nc(-c4nc5c(-c6cc(F)cc(N7CCOCC7)c6)cncc5[nH]4)c3c2)c1 [Compound 24, 1-(5-(3-(7-(3-Fluoro-5-morpholinophenyl)-3H-imidazo[4,5-c]pyridin-2-yl)-1H-pyrazolo[3,4-b]pyridin-5-yl)pyridin-3-yl)-N,N-dimethylmethanamine]	–	21 nM	–
Fc1cc(-c2cncc3[nH]c(-c4n[nH]c5ncc(-c6cccnc6)cc45)nc23)cc(N2CCOCC2)c1 [Compound 13, 4-(3-Fluoro-5-(2-(5-(pyridin-3-yl)-1H-pyrazolo[3,4-b]pyridin-3-yl)-3H-imidazo[4,5-c]pyridin-7-yl)phenyl)morpholine]	–	172 nM	–
CN(C)Cc1cncc(-c2cnc3[nH]nc(-c4nc5c(-c6ccsc6)cncc5[nH]4)c3c2)c1 [Compound 352, N,N-Dimethyl-1-(5-(3-(7-(thiophen-3-yl)-3H-imidazo[4,5-c]pyridin-2-yl)-1H-pyrazolo[3,4-b]pyridin-5-yl)pyridin-3-yl)methanamine]	–	57 nM	–
CC(C)(C)C(=O)Nc1cncc(-c2cnc3[nH]nc(-c4nc5c(-c6ccccc6F)cccc5[nH]4)c3c2)c1 [Compound 594, N-(5-(3-(4-(2-Fluorophenyl)-1H-benzo[d]imidazol-2-yl)-1H-pyrazolo[3,4-b]pyridin-5-yl)pyridin-3-yl)pivalamide]	–	120 nM	–
